Data as given in the supplement of paper PMC4976141.

Each sequence was assayed on PC9 (assay: cell count fold change with erlotinib, miRNA mimic vs non-targeting control (log2 ratio); higher = more drug-tolerant survivors than NTC). Details: erlotinib 1 µM; 72 h drug + 72 h drug-free recovery; perturbation: miRNA mimic.

| Sequence | cell count fold change with erlotinib |
| --- | --- |
| CUUAUGCAAGAUUCCCUUCUAC | -1.68 |
| GAAAGCGCUUCCCUUUGCUGGA | -0.859 |
| GAAAGCGCUUCUCUUUAGAGG | -0.525 |
| GAAAGUGCUUCCUUUUAGAGGC | -0.077 |
| GAAGGCGCUUCCCUUUAGAGCG | -2.22 |
| GAAGUGCUUCGAUUUUGGGGUGU | -0.122 |
| GAGUGCCUUCUUUUGGAGCGUU | -4.05 |
| GAUGAGCUCAUUGUAAUAUGAG | -2.97 |
| GAUUAGGGUGCUUAGCUGUUAA | -2.53 |
| GAUUGCUCUGCGUGCGGAAUCGAC | -1.68 |
| GCAUGGGUGGUUCAGUGG | 0.259 |
| GGGCGACAAAGCAAGACUCUUUCUU | -2.38 |
| GGGGAGCUGUGGAAGCAGUA | -2.06 |
| GGUGCAGUGCUGCAUCUCUGGU | -1.52 |
| GGUUUGGUCCUAGCCUUUCUA | 0.113 |
| GUAGAUUCUCCUUCUAUGAGUA | -1.33 |
| GUGAAUUACCGAAGGGCCAUAA | -2.07 |
| GUGAGGACUCGGGAGGUGG | -3.05 |
| GUGAGGGCAUGCAGGCCUGGAUGGGG | -0.605 |
| GUGAGUCUCUAAGAAAAGAGGA | -1.43 |
| GUGCAUUGCUGUUGCAUUGC | -2.3 |
| GUGGCUGCACUCACUUCCUUC | -0.272 |
| GUGGGUACGGCCCAGUGGGGGG | 0.186 |
| GUGUGCGGAAAUGCUUCUGCUA | -2.43 |
| GUUGGAGGAUGAAAGUACGGAGUGAU | -2.24 |
| UAAAGAGCCCUGUGGAGACA | -1.03 |

| Sequence | cell count fold change with erlotinib |
| --- | --- |
| UAACUGGUUGAACAACUGAACC | -0.919 |
| UAAGGCACGCGGUGAAUGCC | 0.453 |
| UAAGGUGCAUCUAGUGCAGAUAG | -4.51 |
| UAAGGUGCAUCUAGUGCAGUUAG | -4.47 |
| UAAGUGCUUCCAUGCUU | -0.506 |
| UAAGUGCUUCCAUGUUUCAGUGG | -0.141 |
| UAAGUGCUUCCAUGUUUGAGUGU | -0.491 |
| UAAGUGCUUCCAUGUUUUGGUGA | -1.35 |
| UACCCAGAGCAUGCAGUGUGAA | -2.53 |
| UACGUCAUCGUUGUCAUCGUCA | -0.419 |
| UACUCAGGAGAGUGGCAAUCAC | -0.848 |
| UACUUGGAAAGGCAUCAGUUG | -0.495 |
| UAGAGUUACACCCUGGGAGUUA | -3.48 |
| UAGAUAAAAUAUUGGUACCUG | -1.41 |
| UAGCAGCACAGAAAUAUUGGC | -1.13 |
| UAGCAGCACGUAAAUAUUGGCG | -2.26 |
| UAGCAGCGGGAACAGUUCUGCAG | -3.68 |
| UAGCUUAUCAGACUGAUGUUGA | -2.58 |
| UAGGACACAUGGUCUACUUCU | -1.02 |
| UAGGCAGUGUCAUUAGCUGAUUG | -1.83 |
| UAGGUUAUCCGUGUUGCCUUCG | -2.37 |
| UAGUACCAGUACCUUGUGUUCA | -4.15 |
| UAGUGCAAUAUUGCUUAUAGGGU | -3.19 |
| UAUGGCUUUUUAUUCCUAUGUGA | -1.4 |
| UAUGUGCCUUUGGACUACAUCG | -3.93 |
| UCACAAUGCUGACACUCAAACUGCUGAC | -1.47 |

| Sequence | cell count fold change with erlotinib |
| --- | --- |
| UCACUCCUCUCCUCCCGUCUU | -4.11 |
| UCCAGCAUCAGUGAUUUUGUUG | -2.81 |
| UCCCUGUCCUCCAGGAGCUCACG | -1.84 |
| UCCCUGUUCGGGCGCCA | -3.09 |
| UCCUGUACUGAGCUGCCCCGAG | -0.848 |
| UCGAGGAGCUCACAGUCUAGU | -0.737 |
| UCGGAUCCGUCUGAGCUUGGCU | 0.402 |
| UCUCUGGGCCUGUGUCUUAGGC | 0.808 |
| UGACAACUAUGGAUGAGCUCU | -1.88 |
| UGAGAACCACGUCUGCUCUGAG | -1.74 |
| UGAGACCUCUGGGUUCUGAGCU | -0.719 |
| UGAGAUGAAGCACUGUAGCUC | -1.52 |
| UGAGCCCCUGUGCCGCCCCCAG | -1.44 |
| UGAGCCCUGUCCUCCCGCAG | -3.68 |
| UGAGCGCCUCGACGACAGAGCCG | -1.23 |
| UGAGGGGCAGAGAGCGAGACUUU | -0.476 |
| UGAGUGCCGGUGCCUGCCCUG | -2.45 |
| UGCCUGUCUACACUUGCUGUGC | -1.78 |
| UGCGGGGCUAGGGCUAACAGCA | 0.647 |
| UGCUUCCUUUCAGAGGGU | -3.13 |
| UGGAAGACUAGUGAUUUUGUUGU | -2.71 |
| UGGAAUGUAAGGAAGUGUGUGG | -0.89 |
| UGGAGAGAAAGGCAGUUCCUGA | -1.98 |
| UGGAGGAGAAGGAAGGUGAUG | 0.943 |
| UGGAUUUCUUUGUGAAUCACCA | -4.07 |
| UGGGCGUAUCUGUAUGCUA | -0.274 |

| Sequence | cell count fold change with erlotinib |
| --- | --- |
| UGGGUCUUUGCGGGCGAGAUGA | -0.809 |
| UGGUGCGGAGAGGGCCCACAGUG | -1.34 |
| UGGUUGUAGUCCGUGCGAGAAUA | 1.81 |
| UGGUUUACCGUCCCACAUACAU | 0.24 |
| UGUAAACAUCCUACACUCUCAGC | 0.35 |
| UGUAGUGUUUCCUACUUUAUGGA | -4.91 |
| UGUCUUGCAGGCCGUCAUGCA | -4.12 |
| UGUGCGCAGGGAGACCUCUCCC | -1.77 |
| UGUUUUGAUAACAGUAAUGU | -1.27 |
| UUACAGUUGUUCAACCAGUUACU | -2.68 |
| UUAUGGUUUGCCUGGGACUGAG | -0.886 |
| UUCAACGGGUAUUUAUUGAGCA | -3.32 |
| UUCCUAUGCAUAUACUUCUUUG | -1.18 |
| UUCUCAAGGAGGUGUCGUUUAU | -1.83 |
| UUCUCCAAAAGAAAGCACUUUCUG | -1.65 |
| UUCUCGAGGAAAGAAGCACUUUC | -1.6 |
| UUGCAGCUGCCUGGGAGUGACUUC | -2.6 |
| UUGCAUAUGUAGGAUGUCCCAU | -1.06 |
| UUGGGAUCAUUUUGCAUCCAUA | 0.519 |
| UUGUACAUGGUAGGCUUUCAUU | -3.02 |
| UUGUGCUUGAUCUAACCAUGU | -1.88 |
| UUGUGUCAAUAUGCGAUGAUGU | -3.39 |
| UUUCCAUAGGUGAUGAGUCAC | -0.48 |
| UUUGUGACCUGGUCCACUAACC | -2.85 |
| UUUGUUCGUUCGGCUCGCGUGA | -4.05 |
| UUUUGCACCUUUUGGAGUGAA | -3.02 |
